The text below walks through data of patent publication US20200325154A1, “ANTIBACTERIAL BIAROMATIC DERIVATIVES WITH OXETANE-3-YLOXY SUBSTITUTION” (priority 2016, published 2020).

What all share (experiment): Bacterial growth minimal inhibitory concentration (microdilution, cation-adjusted Mueller-Hinton Broth)
On the technique in general: In broth dilution the organism is exposed to a series of concentrations in liquid medium.

Assay [1] has as its system A. baumannii T6474. Type of assay: cell-based, Acinetobacter baumannii. To be noted: for MIC: Acinetobacter baumannii, T6474, Table 1, multiply-resistant (quinolone-resistant) strain. The procedure:
(§1) Minimal Inhibitory Concentrations (MICs; mg/L) were determined in cation-adjusted Mueller-Hinton Broth by a microdilution method following the description given in “Methods for Dilution Antimicrobial Susceptibility Tests for Bacteria that Grow Aerobically”, Approved standard, 7^1 ed., Clinical and Laboratory Standards Institute (CLSI) Document M7-A7, Wayne, Pa., USA (2006).
(§2) All Example compounds were tested against relevant Gram positive and Gram negative bacteria. […] Staphylococcus aureus A798 and Acinetobacter baumannii T6474 are multiply-resistant strains (in particular quinolone-resistant), whereas Moraxella catarrhalis A894 and Enterococcus faecalis ATCC29212 are quinolone-sensitive strains.

Assay [2] relates to S. aureus A798. Type of assay: cell-based, Staphylococcus aureus. The conditions noted are these: for MIC: Staphylococcus aureus, A798, Table 1, multiply-resistant (quinolone-resistant) strain. As for the experimental part:
as §1, §2

In assay [3] the test system is E. faecalis ATCC 29212. Format: cell-based, Enterococcus faecalis. The conditions noted are these: quinolone-sensitive strain; for MIC: Enterococcus faecalis, ATCC29212, Table 1. The procedure:
as §1, §2

The subject of assay [4] is M. catarrhalis A894. Format: cell-based, Moraxella catarrhalis. The conditions noted are these: quinolone-sensitive strain; for MIC: Moraxella catarrhalis, A894, Table 1. As for the experimental part: as §1, §2
The mark [5] stands for this setting: Table 2, comparison with Example 50 of WO 2014/170821, multiply-resistant strain.
[6] abbreviates: Table 2, comparison with Example 50 of WO 2014/170821.

The term MIC denotes the lowest concentration that inhibits growth of the organism.

Values after ≈ are worked out from the molar mass of the structure shown.

Consider `O=C1COc2ccc(N3C[C@H](CCNCc4cc(-c5cncc(OC6COC6)n5)ccn4)OC3=O)nc2N1` [Example 1, 6-{(S)-5-[2-({4-[6-(oxetan-3-yloxy)-pyrazin-2-yl]-pyridin-2-ylmethyl}-amino)-ethyl]-2-oxo-oxazolidin-3-yl}-4H-pyrido[3,2-b][1,4]oxazin-3-one], for which the MIC in assay [1] was 0.125 µg/mL (≈ 0.241 µM); in assay [2], at most 0.031 µg/mL; in assay [3], 0.25 µg/mL (≈ 0.481 µM); in assay [4] it was at most 0.031 µg/mL.
With `O=C1COc2ccc(-n3cc(CCNCc4cc(-c5cncc(OC6COC6)n5)ccn4)oc3=O)nc2N1` [Example 2, 6-{5-[2-({4-[6-(oxetan-3-yloxy)-pyrazin-2-yl]-pyridin-2-ylmethyl}-amino)-ethyl]-2-oxo-oxazol-3-yl}-4H-pyrido[3,2-b][1,4]oxazin-3-one], the minimal inhibitory concentration (MIC) was 0.125 µg/mL (≈ 0.242 µM) in assay [1], at most 0.031 µg/mL in assay [2], 0.25 µg/mL (≈ 0.483 µM) in assay [3] and at most 0.031 µg/mL in assay [4].
In the case of `O=C1COc2ccc(N3C[C@H](CCNCc4cc(-c5cc(OC6COC6)ccn5)ccn4)OC3=O)nc2N1` [Example 3, 6-[(S)-5-(2-{[4-(oxetan-3-yloxy)-[2,4′]bipyridinyl-2′-ylmethyl]-amino}-ethyl)-2-oxo-oxazolidin-3-yl]-4H-pyrido[3,2-b][1,4]oxazin-3-one], the MIC in assay [1] was 1 µg/mL (≈ 1.93 µM); in assay [2] it was 1 µg/mL (≈ 1.93 µM); in assay [3], 1 µg/mL (≈ 1.93 µM); in assay [4] it was 0.25 µg/mL (≈ 0.482 µM).
On to `O=C1COc2ccc(N3C[C@H](CCNCc4cc(-c5nccc(OC6COC6)n5)ccn4)OC3=O)nc2N1` [Example 4, 6-{(S)-5-[2-({4-[4-(oxetan-3-yloxy)-pyrimidin-2-yl]-pyridin-2-ylmethyl}-amino)-ethyl]-2-oxo-oxazolidin-3-yl}-4H-pyrido[3,2-b][1,4]oxazin-3-one], for which the minimum inhibitory concentration (MIC) in assay [1] is 0.125 µg/mL (≈ 0.241 µM); in assay [2], at most 0.031 µg/mL; in assay [3], 0.25 µg/mL (≈ 0.481 µM); in assay [4], at most 0.031 µg/mL.
`O=C1COc2ccc(N3C[C@H](CCNCc4cc(-c5cc(OC6COC6)cnn5)ccn4)OC3=O)nc2N1` [Example 5, 6-{(S)-5-[2-({4-[5-(oxetan-3-yloxy)-pyridazin-3-yl]-pyridin-2-ylmethyl}-amino)-ethyl]-2-oxo-oxazolidin-3-yl}-4H-pyrido[3,2-b][1,4]oxazin-3-one]: the MIC in assay [1] came to 8 µg/mL (≈ 15.4 µM); in assay [2], 8 µg/mL (≈ 15.4 µM); in assay [3], 8 µg/mL (≈ 15.4 µM); in assay [4], 0.5 µg/mL (≈ 0.962 µM).
On to `O=C1COc2ccc(N3C[C@H](CCNCc4cccc(-c5cccc(OC6COC6)n5)c4)OC3=O)nc2N1` [Example 6, 6-[(S)-5-(2-{3-[6-(oxetan-3-yloxy)-pyridin-2-yl]-benzylamino}-ethyl)-2-oxo-oxazolidin-3-yl]-4H-pyrido[3,2-b][1,4]oxazin-3-one], for which the MIC in assay [1] is 0.25 µg/mL (≈ 0.483 µM); in assay [2] it was at most 0.031 µg/mL; in assay [3], 0.25 µg/mL (≈ 0.483 µM); in assay [4] it was at most 0.031 µg/mL.
Regarding `O=C1COc2ccc(N3C[C@H](CCNCc4ccnc(-c5cncc(OC6COC6)n5)c4)OC3=O)nc2N1` [Example 7, 6-{(S)-5-[2-({2-[6-(oxetan-3-yloxy)-pyrazin-2-yl]-pyridin-4-ylmethyl}-amino)-ethyl]-2-oxo-oxazolidin-3-yl}-4H-pyrido[3,2-b][1,4]oxazin-3-one], the MIC in assay [1] was 0.5 µg/mL (≈ 0.962 µM); in assay [2] it was at most 0.031 µg/mL; in assay [3], 0.5 µg/mL (≈ 0.962 µM); in assay [4] it was at most 0.031 µg/mL.
As for `O=C1COc2ccc(N3C[C@H](CCNCc4cccc(-c5cc(OC6COC6)cnn5)c4)OC3=O)nc2N1` [Example 8, 6-[(S)-5-(2-{3-[5-(oxetan-3-yloxy)-pyridazin-3-yl]-benzylamino}-ethyl)-2-oxo-oxazolidin-3-yl]-4H-pyrido[3,2-b][1,4]oxazin-3-one], the MIC in assay [1] amounted to 1 µg/mL (≈ 1.93 µM); in assay [2] it was 0.5 µg/mL (≈ 0.964 µM); in assay [3], 4 µg/mL (≈ 7.71 µM); in assay [4] it was 0.25 µg/mL (≈ 0.482 µM).
On to `O=C1COc2ccc(N3C[C@H](CCNCc4cccc(-c5cccc(OC6COC6)c5)c4)OC3=O)nc2N1` [Example 9, 6-[(S)-5-(2-{[3′-(oxetan-3-yloxy)-biphenyl-3-ylmethyl]-amino}-ethyl)-2-oxo-oxazolidin-3-yl]-4H-pyrido[3,2-b][1,4]oxazin-3-one], for which the MIC in assay [1] was 1 µg/mL (≈ 1.94 µM); in assay [2], 0.125 µg/mL (≈ 0.242 µM); in assay [3] it was 0.5 µg/mL (≈ 0.968 µM); in assay [4], at most 0.031 µg/mL. For the same molecule, in assay [1] (setting [5]), the “MIC for A. baumannii T6474” value was determined as 1 µg/mL. For the same molecule, the “MIC for S. aureus A798” value in assay [2] (setting [5]) came out at 0.125 µg/mL. For the same molecule, the “MIC for E. faecalis ATCC 29212” value in assay [3] (setting [6]) turned out to be 0.5 µg/mL. The “MIC for M. catarrhalis A894” value in assay [4] (setting [6]) was at most 0.031 µg/mL.
With `O=C1COc2ccc(N3C[C@@H](CCNCc4cc(-c5nccc(OC6COC6)n5)ccn4)OC3=O)nc2N1` [Example 10, 6-{(R)-5-[2-({4-[4-(oxetan-3-yloxy)-pyrimidin-2-yl]-pyridin-2-ylmethyl}-amino)-ethyl]-2-oxo-oxazolidin-3-yl}-4H-pyrido[3,2-b][1,4]oxazin-3-one], the MIC in assay [1] worked out at 0.25 µg/mL (≈ 0.481 µM); in assay [2] it was 0.25 µg/mL (≈ 0.481 µM); in assay [3], 0.5 µg/mL (≈ 0.962 µM); in assay [4], 0.063 µg/mL (≈ 0.121 µM).
Take `O=C1CSc2ccc(N3C[C@H](CCNCc4cc(-c5nccc(OC6COC6)n5)ccn4)OC3=O)nc2N1` [Example 11, 6-{(S)-5-[2-({4-[4-(oxetan-3-yloxy)-pyrimidin-2-yl]-pyridin-2-ylmethyl}-amino)-ethyl]-2-oxo-oxazolidin-3-yl}-4H-pyrido[3,2-b][1,4]thiazin-3-one]: the minimum inhibitory concentration (MIC) in assay [1] is 0.125 µg/mL (≈ 0.233 µM); in assay [2], at most 0.031 µg/mL; in assay [3], 0.125 µg/mL (≈ 0.233 µM); in assay [4], at most 0.031 µg/mL.
Regarding `O=C1CSc2ccc(N3C[C@H](CCNCc4cc(-c5nccc(OC6COC6)n5)ccn4)OC3=O)cc2N1` [Example 12, 6-{(S)-5-[2-({4-[4-(oxetan-3-yloxy)-pyrimidin-2-yl]-pyridin-2-ylmethyl}-amino)-ethyl]-2-oxo-oxazolidin-3-yl}-4H-benzo[1,4]thiazin-3-one], the MIC in assay [1] is 0.25 µg/mL (≈ 0.468 µM); in assay [2], at most 0.031 µg/mL; in assay [3], 0.25 µg/mL (≈ 0.468 µM); in assay [4], at most 0.031 µg/mL.
As for `O=C1COc2ccc(-n3cc(CCNCc4cc(-c5nccc(OC6COC6)n5)ccn4)oc3=O)nc2N1` [Example 13, 6-{5-[2-({4-[4-(oxetan-3-yloxy)-pyrimidin-2-yl]-pyridin-2-ylmethyl}-amino)-ethyl]-2-oxo-oxazol-3-yl}-4H-pyrido[3,2-b][1,4]oxazin-3-one], the MIC is 0.125 µg/mL (≈ 0.242 µM) in assay [1], at most 0.031 µg/mL in assay [2], 0.5 µg/mL (≈ 0.966 µM) in assay [3] and at most 0.031 µg/mL in assay [4].
As to `O=C1COc2ccc(N3C[C@H](CCNCc4cc(-c5cncc(OC6COC6)n5)c(O)cn4)OC3=O)nc2N1` [Example 14, 6-{(S)-5-[2-({5-hydroxy-4-[6-(oxetan-3-yloxy)-pyrazin-2-yl]-pyridin-2-ylmethyl}-amino)-ethyl]-2-oxo-oxazolidin-3-yl}-4H-pyrido[3,2-b][1,4]oxazin-3-one], the MIC in assay [1] was determined as 4 µg/mL (≈ 7.47 µM); in assay [2], 1 µg/mL (≈ 1.87 µM); in assay [3], 4 µg/mL (≈ 7.47 µM); in assay [4], 0.5 µg/mL (≈ 0.934 µM).
Take `O=C1COc2ccc(N3C[C@H](CCNCc4cc(-c5nccc(OC6COC6)n5)c(O)cn4)OC3=O)nc2N1` [Example 15, 6-{(S)-5-[2-({5-hydroxy-4-[4-(oxetan-3-yloxy)-pyrimidin-2-yl]-pyridin-2-ylmethyl}-amino)-ethyl]-2-oxo-oxazolidin-3-yl}-4H-pyrido[3,2-b][1,4]oxazin-3-one]: the minimal inhibitory concentration (MIC) in assay [1] is 0.25 µg/mL (≈ 0.467 µM); in assay [2], at most 0.031 µg/mL; in assay [3] it was 0.25 µg/mL (≈ 0.467 µM); in assay [4], at most 0.031 µg/mL.
Turning to `O=C1COc2ccc(N3C[C@H](CCNCc4nccc(-c5cncc(OC6COC6)n5)c4O)OC3=O)nc2N1` [Example 16, 6-{(S)-5-[2-({3-Hydroxy-4-[6-(oxetan-3-yloxy)-pyrazin-2-yl]-pyridin-2-ylmethyl}-amino)-ethyl]-2-oxo-oxazolidin-3-yl}-4H-pyrido[3,2-b][1,4]oxazin-3-one], the MIC in assay [1] was found to be 1 µg/mL (≈ 1.87 µM); in assay [2], 0.25 µg/mL (≈ 0.467 µM); in assay [3], 2 µg/mL (≈ 3.73 µM); in assay [4], 0.25 µg/mL (≈ 0.467 µM).
